Experimental findings from a melting point compilation (Tetko et al.) are described below.

Molecules are shown by their SMILES.

The compound `Cc1cc(Br)ccc1SCC(=O)O` came in with a melting point of 125 to 127 °C. As to `O=S1(=O)CCC(Nc2ccccc2)C1` (stereo not drawn), the melting point is 119 to 123 °C. With `CC(C)(C)OC(=O)NCc1cccc(C(N)=S)c1`, the melting point was 105 to 107 °C.

In turn, `O=C(O)C(Cc1ccccc1)NS(=O)(=O)c1ccccc1F` (stereo not drawn) gave a melting point of 258 to 260 °C. For `CNC(C(=O)O)c1cc(F)ccc1F` (stereo not drawn) the value was 239 to 241 °C.

As to `NC(=O)CCc1nnc(S)n1Cc1ccco1`, the melting point fell in the range of 204 to 206 °C. With `CC(C)c1ccc(-c2nc(CSc3nnc(N)[nH]3)cs2)cc1` the figure was 156 to 158 °C; with `CS(=O)(=O)Cc1ccc(Cl)cc1N`, 140 to 142 °C. `Cc1nc(Cl)ccc1C(=O)O` displayed a melting point of 149 to 151 °C. `N#Cc1ccc(F)c(F)c1N` returned a melting point of 92 to 94 °C. Compound `Cc1ccc(NCCC#N)cc1` yielded a melting point of 110 to 112 °C. Compound `CCOc1cc2c(cc1/C=C/C(=O)O)OC(C)C2` (stereo not drawn) displayed a melting point of 169 to 171 °C.

`O=C(CCl)NCC(=O)c1ccccc1` had a melting point of 124 to 126 °C.

`CCOC(=O)c1sc(-c2cccc(Br)c2)cc1N` had a melting point of 97 to 99 °C. With `C=CC(=O)ON=C(N)c1cccc(Cl)c1` the figure was 114 to 116 °C.

On to `CC(C)Cn1c(S)nc2cc(Cl)ccc2c1=O`, for which the melting point was 221 to 223 °C. For `CC(O)c1nc2cc(Cl)ccc2s1` (stereo not drawn) the value was 109 to 111 °C; for `O=C(Cc1nc2ccccc2s1)c1ccccc1`, 113 to 115 °C. The compound `CS(=O)(=O)Cc1nc(CCl)cs1` had a melting point of 80 to 82 °C. Take `COC(=O)C1CCN(S(=O)(=O)Cl)CC1`: the melting point lay within 66 to 68 °C. On to `O=c1ccn2ncnc2[nH]1`, for which the melting point is 282 to 284 °C. Regarding `NS(=O)(=O)N1CCCNCC1`, the melting point was 118 to 120 °C. With `COC(=O)c1c(C(=O)OC)c(-c2ccc(N)cc2)n2c1CCC2` the figure was 182 to 184 °C; with `Clc1ccncc1Cl`, 22 to 23 °C. With `Nc1nsc(N2CCCC2)n1` the figure was 244 to 246 °C; with `O=C(Nc1nccs1)C1CCNCC1`, 196 to 198 °C. Compound `CC(=Cc1ccc(Cl)cc1)C(=O)O` returned a melting point of 159 to 161 °C.

`NC(=O)NCc1cccs1` registered a melting point of 128 to 132 °C. With `O=C(CCl)c1c(-c2ccccc2)[nH]c2ccccc12` the figure was 140 to 142 °C. The compound `Cc1nc(C2COCCN2C(=O)OC(C)(C)C)no1` (stereo not drawn) displayed a melting point of 96 to 98 °C. `Nc1nncc(-c2ccccc2OC(F)F)n1` registered a melting point of 159 to 161 °C.

`CC1(C)C(=O)NC(=O)N1CC(N)=O` yielded a melting point of 154 to 156 °C. `CC(=O)c1cc(F)c(N)c(F)c1`: the melting point was 69 to 71 °C. On to `CC(=O)c1cccc(N2CCCC2=O)c1`, for which the melting point was in the range of 90 to 95 °C. On to `Cc1nn(-c2ccc(F)cc2)c(Cl)c1C(=O)O`, for which the melting point lay in the range of 253 to 255 °C. For `Cc1ccc(C2CC2C(=O)O)cc1C` (stereo not drawn) the value was 97 to 99 °C; for `NNC(=O)Cc1nc2ccccc2[nH]1`, 177 to 181 °C. As to `CC(C(=O)O)c1cccnc1` (stereo not drawn), the melting point was in the range of 85 to 87 °C. Turning to `NS(=O)(=O)N1CCN(Cc2ccccc2)CC1`, the melting point lay within 147 to 149 °C. With `Nc1ccc(S(=O)(=O)N2CCCCCC2)cc1` the figure was 105 to 107 °C; with `O=C1Nc2cc(N3CCCC3)ccc2C1=O`, 293 to 295 °C; with `O=C(O)C1Cc2cccc(F)c2O1` (stereo not drawn), 126 to 128 °C. The compound `CCc1ccc2c(CCl)cc(=O)oc2c1` registered a melting point of 138 to 140 °C.

Turning to `Oc1cccc2ccc(N3CCCC3)nc12`, the melting point was in the range of 85 to 87 °C. `O=C(O)c1nc(=O)[nH][nH]1` had a melting point of 202 to 204 °C. `CC1=NN(c2ccc(C(=O)O)cc2)CC1` returned a melting point of 261 to 263 °C. Compound `O=C(CCl)Nc1cc(F)ccc1F` returned a melting point of 118 to 120 °C. For `O=[N+]([O-])c1ccc(O)c(Br)c1` the value was 111 to 113 °C. With `Sc1nc(-c2ccccn2)no1`, the melting point was in the range of 146 to 148 °C. With `Nc1ccc(S(=O)(=O)Nc2ccc(F)cc2F)cc1` the figure was 162 to 164 °C. `Cc1c(N)cc(C#N)cc1F` returned a melting point of 135 to 137 °C. For `N#CC1(CS(N)(=O)=O)CCCC1` the value was 72 to 74 °C.

Consider `CCOC(=O)Nc1cccc(C(=O)O)c1`, for which the melting point was in the range of 196 to 198 °C.

Take `Nc1ccc(-n2cc(S(N)(=O)=O)cn2)nc1`: the melting point was in the range of 218 to 220 °C. The compound `N#CC1(NC(=O)CCl)CCCC1` displayed a melting point of 74 to 76 °C.

Compound `CS(=O)(=O)c1ccc(C(=O)Nc2c(Cl)cc(N)cc2Cl)cc1` displayed a melting point of 238 to 240 °C.

Take `CC(C)(C)OC(=O)CC(C)(C#N)C(=O)O` (stereo not drawn): the melting point lay in the range of 89 to 91 °C. In the case of `O=c1ccc(S(=O)(=O)N2CCCCC2)c[nH]1`, the melting point was 239 to 241 °C.

As to `O=C1Cc2ccc(Br)cc2N1`, the melting point lay within 216 to 220 °C.

As to `O=C1NC(=O)C2(CCNC2)N1` (stereo not drawn), the melting point was in the range of 201 to 203 °C. For `Nc1ccc2oc(-c3ccccc3F)nc2c1` the value was 166 to 168 °C; for `Cc1cccc(F)c1C(=O)O`, 114 to 116 °C. For `O=C(O)c1cc2cc(Cl)c(Cl)cc2[nH]1` the value was 321 to 323 °C. With `CC(C)(C)OC(=O)N1CCCC1CC(=O)O` (stereo not drawn) the figure was 107 to 109 °C. As for `O=C(O)c1cc(Cl)cc([N+](=O)[O-])c1`, the melting point is 146 to 148 °C. On to `O=C1C=CC(=O)N1c1ccccc1Sc1ccccc1`, for which the melting point is 51 to 53 °C. The compound `NC(=O)c1ccc(OCC(=O)O)cc1` displayed a melting point of 264 to 266 °C. Compound `CCOC(=O)c1oc2c(Cl)cccc2c1C` came in with a melting point of 63 to 65 °C.

Consider `O=C(O)c1ccc(Cl)cc1NS(=O)(=O)c1ccccc1`, for which the melting point lay in the range of 189 to 191 °C. `Cc1sc(N)nc1Cc1ccccc1`: the melting point lay within 75 to 77 °C. As to `NC(=O)c1sc2ccccc2c1N`, the melting point lay in the range of 217 to 219 °C. With `O=C(O)c1nc[nH]n1` the figure was 132 to 136 °C; with `Nc1ncn(Cc2ccccn2)n1`, 113 to 115 °C; with `CCc1nc(N)sc1C(=O)OC`, 181 to 183 °C. On to `O=C(O)CN1CCS(=O)(=O)CC1`, for which the melting point lay in the range of 179 to 181 °C. For `COc1cc(C=O)ccc1SC`, the melting point was 45 to 47 °C. For `CC(C)(C)OC(=O)NCCCC(=O)NN` the value was 114 to 116 °C; for `NNS(=O)(=O)Cc1ccccc1`, 131 to 133 °C. With `O=C(O)C1CCN(c2ccc3c(c2)OCCO3)C1=O` (stereo not drawn) the figure was 122 to 124 °C; with `Brc1ccccc1Cc1nn[nH]n1`, 135 to 137 °C. `CC(C)(C)OC(=O)Cc1cccc(N)c1` yielded a melting point of 47 to 49 °C.

`CC(C)Oc1ccc(CNC(=O)CCl)cc1` gave a melting point of 63 to 65 °C. `CNc1c(F)cccc1C(=O)O` had a melting point of 134 to 136 °C. For `N#Cc1cc([N+](=O)[O-])ccc1N1CCC(C(=O)O)CC1` the value was 161 to 163 °C.

Regarding `Cc1nc2c(Cl)cccc2n1O`, the melting point was 239 to 241 °C. For `CC(C(=O)O)N1C(=O)NC2(CCCC2)C1=O` (stereo not drawn), the melting point fell in the range of 223 to 225 °C. The compound `Sc1nnc(-c2ccco2)o1` came in with a melting point of 173 to 175 °C. The compound `COc1c([N+](=O)[O-])ccc(C=O)c1OC(F)F` gave a melting point of 95 to 97 °C.
